Literature values in patent publication EP0156318A2, “C-terminal amide cyclic renin inhibitors containing peptide isosteres” (Merck & Co., Inc., priority 1984, dated 1985).
Square brackets hold non-standard residues; d marks the D form. Peptide text beside a SMILES is read from it. * marks the point of attachment. Sta = CC(C)C[C@H](N)[C@@H](O)CC(=O)O; Isovaleryl = CC(C)CC(=O)*

Tested on: hog renin
Conditions: after the injection of hog renin into nephrectomized rats

CC(C)CC(=O)N[C@H](C(=O)N[C@H](C(=O)N[C@@H](CC(C)C)[C@@H](O)CC(=O)N[C@@H](C)C(=O)N[C@@H](CC(C)C)[C@@H](O)CC(=O)O)C(C)C)C(C)C [pepstatin] (Isovaleryl-VV[Sta]A[Sta]-OH)
blood pressure in vivo: reduce blood pressure
